The source of these data is US9890147B2 (BAYER PHARMA AKTIENGESELLSCHAFT, priority 2012, dated 2018).

One assay relates to MOLM-13 cells. Put plainly: Cell proliferation assay (alamarBlue), MOLM-13. It is filed as cell-based. The settings on record: 96 hours incubation, inhibition of cell proliferation. In short, it runs like this: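 IC50 = concentration giving 50% growth inhibition relative to buffer-treated cells, after subtracting baseline fluorescence taken before dosing. Compound applied at 1E-5 to 1E-8 M for 96 h at 37 °C in RPMI1640 with 10% FCS; alamarBlue signal at 530/590 nm.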
On the technique in general: The colour change of resazurin is a common sign of viable cells or microbes.

A further assay addresses T1, BRD4 (BD1) (Homo sapiens, UniProt O60885).
T1 construct: with relatively long constructs also being possible, preferably amino acids 44-168; made in house; host or cells: E. coli
Put plainly: Binding assay BRD4/acetylated peptide H4 (TR-FRET protein-protein interaction assay). The method in brief: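 Displacement of biotin-Ac-H4 peptide from His6-tagged BRD4(BD1), final usually 10 nM, read as Eu-streptavidin to anti-His-XL665 TR-FRET (665/620 nm). Compounds tested at 11 doses up to 20 μM in duplicate, pH 7.5 HEPES, 22 °C then 4 °C incubation; IC50 by 4-parameter regression.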

For orientation: IC50 means the concentration that inhibits the measured activity by half.

`COc1cc2c(cc1OC)C(c1ccc(-c3c(C)noc3C)cc1)=NN(C(C)=O)C(C)C2` (racemic) [Example 246, (±)-1-{1-[4-(3,5-dimethyl-1,2-oxazol-4-yl)phenyl]-7,8-dimethoxy-4-methyl-4,5-dihydro-3H-2,3-benzodiazepin-3-yl}ethanone]: the IC50 with MOLM-13 cells (Homo sapiens) was 2.06 µM; at BRD4 (BD1), 0.33 µM.
Regarding `CNC(=O)N1N=C(c2ccc(-c3nnc(C)o3)cc2)c2cc(OC)c(OC)cc2CC1C` (racemic) [Example 247, (±)-7,8-Dimethoxy-N,4-dimethyl-1-[4-(5-methyl-1,3,4-oxadiazol-2-yl)phenyl]-4,5-dihydro-3H-2,3-benzodiazepine-3-carboxamide], the IC50 in the assay with MOLM-13 cells (Homo sapiens) came out at 0.57 µM; on BRD4 (BD1) it was 0.19 µM.
Regarding `CNC(=O)N1N=C(c2ccc(-c3nc(C)no3)cc2)c2cc(OC)c(OC)cc2CC1C` (racemic) [Example 248, (±)-7,8-Dimethoxy-N,4-dimethyl-1-[4-(3-methyl-1,2,4-oxadiazol-5-yl)phenyl]-4,5-dihydro-3H-2,3-benzodiazepine-3-carboxamide], the results for the half-inhibitory concentration (IC50) in the assay on MOLM-13 cells (Homo sapiens) and at BRD4 (BD1) were 0.14 µM and 0.19 µM, respectively.
For `CNC(=O)N1N=C(c2ccc(N3CCC(O)CC3)cc2)c2cc(OC(F)(F)F)ccc2CC1C` (racemic) [Example 251, (±)-1-[4-(4-hydroxy-1-piperidinyl)phenyl]-N,4-dimethyl-8-(trifluoromethoxy)-4,5-dihydro-3H-2,3-benzodiazepine-3-carboxamide], in that order: 0.1 µM and 0.03 µM.
Turning to `CNC(=O)N1N=C(c2ccc(Cl)cc2)c2cc(OC(F)(F)F)c(Cl)cc2CC1C` (single isomer, unassigned) [Example 15.1, 7-Chloro-1-(4-chlorophenyl)-N,4-dimethyl-8-(trifluoromethoxy)-4,5-dihydro-3H-2,3-benzodiazepine-3-carboxamide], the concentration for half-maximal inhibition (IC50) was 3.05 µM in the assay on MOLM-13 cells (Homo sapiens) and 0.45 µM on BRD4 (BD1).
In the case of `CNC(=O)N1N=C(c2ccc(-c3sc(C)nc3C)cc2)c2cc(OC)c(OC)cc2C[C@@H]1C` (single isomer, unassigned) [Example 46.1], the IC50 in the assay with MOLM-13 cells (Homo sapiens) was 5.14 µM; at BRD4 (BD1), 0.96 µM.
On to `CNC(=O)N1N=C(c2ccc(N3CCOCC3)cc2)c2cc(OC)c(OC)cc2C[C@H]1C` [Example 7.1, (4R)-7,8-dimethoxy-N,4-dimethyl-1-[4-(morpholin-4-yl)phenyl]-4,5-dihydro-3H-2,3-benzodiazepine-3-carboxamide], for which the IC50 was > 10 µM in the assay with MOLM-13 cells (Homo sapiens) and 3.19 µM at BRD4 (BD1).
With `CNC(=O)N1N=C(c2ccc(-c3cnn(C)c3)cc2)c2cc(OC)ccc2C[C@@H]1C` [Example 21, (4S)-8-methoxy-N,4-dimethyl-1-[4-(1-methyl-1H-pyrazol-4-yl)phenyl]-4,5-dihydro-3H-2,3-benzodiazepine-3-carboxamide], the IC50 in the assay on MOLM-13 cells (Homo sapiens) was 0.56 µM; on BRD4 (BD1), 0.13 µM.
For `CCc1cc(C2CC2)nn1-c1ccc(C2=NN(C(=O)NC)[C@@H](C)Cc3ccc(OC)cc32)cc1` [Example 24], the values for the IC50 in the assay on MOLM-13 cells (Homo sapiens) and on BRD4 (BD1) were 1.17 µM and 0.25 µM, respectively.
As to `CCc1cc(C2CC2)n(-c2ccc(C3=NN(C(=O)NC)[C@@H](C)Cc4ccc(OC)cc43)cc2)n1` [Example 25, (4S)-1-[4-(5-cyclopropyl-3-ethyl-1H-pyrazol-1-yl)phenyl]-8-methoxy-N,4-dimethyl-4,5-dihydro-3H-2,3-benzodiazepine-3-carboxamide], the half-maximal inhibitory concentration (IC50) is 0.74 µM in the assay with MOLM-13 cells (Homo sapiens) and 0.16 µM at BRD4 (BD1).
For `CNC(=O)N1N=C(c2ccc(-n3nc(C4CC4)cc3-c3ccccn3)cc2)c2cc(OC)ccc2C[C@@H]1C` [Example 29, (4S)-1-{4-[3-cyclopropyl-5-(pyridin-2-yl)-1H-pyrazol-1-yl]phenyl}-8-methoxy-N,4-dimethyl-4,5-dihydro-3H-2,3-benzodiazepine-3-carboxamide], in that order: 0.36 µM and 0.13 µM.
For `CNC(=O)N1N=C(c2ccc(-n3cnnn3)cc2)c2cc(OC)ccc2C[C@@H]1C` [Example 30, (4S)-8-Methoxy-N,4-dimethyl-1-[4-(1H-tetrazol-1-yl)phenyl]-4,5-dihydro-3H-2,3-benzodiazepine-3-carboxamide], in that order: 0.79 µM and 0.23 µM.
For the compound `CNC(=O)N1N=C(c2ccc(Cl)cc2)c2cc(OCCN3CCCC3)ccc2CC1C` (stereo not drawn) [Example 33], the half-inhibitory concentration (IC50) in the assay on MOLM-13 cells is 3.31 µM; at BRD4 (BD1) it was 0.77 µM.
For the compound `CNC(=O)N1N=C(c2ccc(N3CCN(C)CC3=O)cc2)c2cc(OC)c(OC)cc2C[C@@H]1C` [Example 43.1, (4S)-7,8-dimethoxy-N,4-dimethyl-1-[4-(4-methyl-2-oxopiperazin-1-yl)phenyl]-4,5-dihydro-3H-2,3-benzodiazepine-3-carboxamide], the figures for the half-maximal inhibitory concentration (IC50) in the assay with MOLM-13 cells (Homo sapiens) and on BRD4 (BD1) were 0.81 µM and 0.17 µM, respectively.
On the same counts, the results for `CNC(=O)N1N=C(c2ccc(N3CCN(C)CC3=O)cc2)c2cc(OC)c(OC)cc2C[C@H]1C` [Example 43.2, (4R)-7,8-dimethoxy-N,4-dimethyl-1-[4-(4-methyl-2-oxopiperazin-1-yl)phenyl]-4,5-dihydro-3H-2,3-benzodiazepine-3-carboxamide] are 9.85 µM and 4.52 µM.
For `CNC(=O)N1N=C(c2ccc(-c3cn(C)nn3)cc2)c2cc(OC)c(OC)cc2C[C@@H]1C` [Example 45.1, (4S)-7,8-dimethoxy-N,4-dimethyl-1-[4-(1-methyl-1H-1,2,3-triazol-4-yl)phenyl]-4,5-dihydro-3H-2,3-benzodiazepine-3-carboxamide], in that order: 0.22 µM and 0.07 µM.
For `CNC(=O)N1N=C(c2ccc(-c3ccc(O)nc3)cc2)c2cc(OC)c(OC)cc2C[C@@H]1C` [Example 49.1, (4S)-1-[4-(6-hydroxypyridin-3-yl)phenyl]-7,8-dimethoxy-N,4-dimethyl-4,5-dihydro-3H-2,3-benzodiazepine-3-carboxamide], in that order: 0.23 µM and 0.02 µM.
As for `CNC(=O)N1N=C(c2ccc(-c3ccc(C(F)(F)F)nc3)cc2)c2cc(OC)c(OC)cc2C[C@@H]1C` [Example 50.1, (4S)-7,8-dimethoxy-N,4-dimethyl-1-{4-[6-(trifluoromethyl)pyridin-3-yl]phenyl}-4,5-dihydro-3H-2,3-benzodiazepine-3-carboxamide], the IC50 was determined as 0.37 µM in the assay on MOLM-13 cells (Homo sapiens) and 0.11 µM at BRD4 (BD1).
As to `CNC(=O)N1N=C(c2ccc(-c3c(C)nn(C)c3C)cc2)c2cc(OC)c(OC)cc2C[C@H]1C` [Example 51.1, (4R)-7,8-dimethoxy-N,4-dimethyl-1-[4-(1,3,5-trimethyl-1H-pyrazol-4-yl)phenyl]-4,5-dihydro-3H-2,3-benzodiazepine-3-carboxamide], the results for the IC50 in the assay with MOLM-13 cells (Homo sapiens) and on BRD4 (BD1) were > 10 µM and 1.86 µM, respectively.
As for `CNC(=O)N1N=C(c2ccc(N3CCN(C)CC3)cc2)c2cc(OC)c(OC)cc2C[C@H]1C` [Example 127.2, (4R)-7,8-dimethoxy-N,4-dimethyl-1-[4-(4-methylpiperazin-1-yl)phenyl]-4,5-dihydro-3H-2,3-benzodiazepine-3-carboxamide], the values for the 50% inhibitory concentration (IC50) with MOLM-13 cells (Homo sapiens) and on BRD4 (BD1) were > 10 µM and 8.8 µM, respectively.
For `CNC(=O)N1N=C(c2ccc(N3CCC3)cc2)c2cc(OC)c(OC)cc2C[C@H]1C` [Example 128.1, (4R)-1-[4-(azetidin-1-yl)phenyl]-7,8-dimethoxy-N,4-dimethyl-4,5-dihydro-3H-2,3-benzodiazepine-3-carboxamide], in that order: > 10 µM and 3.98 µM.
